pIC50: −log10 of the molar value.

In assay [1] the test system is MDA-MB-435. The experiment in a line: Antiproliferative activity against human MDA-MB-435 cells. In kind it is functional, cell-based.
The test system of assay [2] is MDA-MB-231. The experiment in a line: Antiproliferative activity against human MDA-MB-231 cells. In kind it is functional, cell-based.
The subject of assay [3] is HT-29. The experiment in a line: Antiproliferative activity against human HT-29 cells after 3 days by SRB assay. In kind it is functional, cell-based. Conditions: HT-29, 72 h. In general terms: In SRB staining, fixed cells bind dye roughly in proportion to their protein.
The subject of assay [4] is MDA-MB-231. The experiment in a line: Antiproliferative activity against human MDA-MB-231 cells after 72 hrs by CellTiter 96 AQueous One Solution Cell Proliferation assay. In kind it is functional, cell-based. Conditions: MDA-MB-231, 72 h.
Assay [5] relates to MDA-MB-435. The experiment in a line: Antiproliferative activity against human MDA-MB-435 cells after 72 hrs by CellTiter 96 AQueous One Solution Cell Proliferation assay. In kind it is functional, cell-based. Conditions: MDA-MB-435, 72 h.
In assay [6] the test system is HT-29. The experiment in a line: Antiproliferative activity against human HT-29 cells after 72 hrs by CellTiter 96 AQueous One Solution Cell Proliferation assay. In kind it is functional, cell-based. Conditions: HT-29, 72 h.
In the next assay the test system is OVCAR-3. The experiment in a line: Antiproliferative activity against human OVCAR-3 cells after 72 hrs by CellTiter 96 AQueous One Solution Cell Proliferation assay. In kind it is functional, cell-based. Conditions: OVCAR-3, 72 h.
The target in a further assay is 20S proteasome. The experiment in a line: Inhibition of chymotrypsin-like activity of human erythrocytes 20S proteasome using Suc-LLVY-AMC as substrate and measured by fluorescence assay.
Assay [7] is described as follows: Antiproliferative activity against human CCD-112CoN cells after 72 hrs by SRB assay. In kind it is functional, cell-based.
In assay [8] the test system is A2780. The experiment in a line: Antiproliferative activity against human A2780 cells. In kind it is functional, cell-based.
Assay [9] concerns MCF7. The experiment in a line: Antiproliferative activity against human MCF7 cells. In kind it is functional, cell-based.
Assay [10] is described as follows: Antiproliferative activity against human PC-3 cells after 3 days by SRB assay. In kind it is functional, cell-based.
Assay [11] has as its system A2780. The experiment in a line: Antiproliferative activity against human A2780 cells by SRB assay. In kind it is functional, cell-based.
Assay [12] concerns MCF7. The experiment in a line: Antiproliferative activity against human MCF7 cells by SRB assay. In kind it is functional, cell-based.

For the compound `CCCC[C@H]1CCCC[C@H](C)Cc2cc(O)c(c(O)c2)[C@@H](CCCC)CCCC[C@H](C)[C@@H](O[C@@H]2OC[C@@H](O)[C@@H](O)[C@H]2O)c2cc(O)c1c(O)c2`, the pIC50 in the assay with MDA-MB-435 [1] and with MDA-MB-231 [2] was 6.22 each time.

`COc1ccc([C@@]23Oc4cc(OC)cc(OC)c4[C@]2(O)[C@H](O)[C@H](C(N)=O)[C@H]3c2ccccc2)cc1` [DIDESMETHYLROCAGLAMIDE] gave a pIC50 in the assay with HT-29 [3] of 7.68.

For the compound `C[C@@H]1CCCCC[C@H](CCCCO)c2c(O)cc(cc2O)[C@H](C)CCCCC[C@H](CCCO)c2c(O)cc1cc2O`, in the assay with MDA-MB-231 [4], the pIC50 is 6.00.

`CO[C@H]1[C@H](O[C@H]2CC[C@]3(C=O)[C@H]4CC[C@]5(C)[C@](O)(C6=CC(=O)OC6)CC[C@]5(O)[C@@H]4CC[C@]3(O)C2)O[C@H](C)[C@H](O)[C@@H]1OC`: the pIC50 with MDA-MB-435 [5], with HT-29 [6] and with OVCAR-3 was less than 5.00 throughout.

The compound `CC[C@H](C)[C@@H]1NC(=O)[C@@H](CCC(N)=O)NC(=O)CNC(=O)[C@H](Cc2ccc(O)cc2)/N=C\[C@H](CC(C)C)NC(=O)[C@H](C(C)C)NC(=O)[C@H](CO)NC1=O` gave a pIC50 on 20S proteasome of 7.02.

`CCCC[C@H]1CCCC[C@H](C)[C@@H](O)c2cc(O)c(c(O)c2)[C@@H](CCCC)CCCC[C@H](C)[C@@H](O[C@@H]2OC[C@@H](O)[C@@H](O)[C@H]2O)c2cc(O)c1c(O)c2`: the pIC50 in the assay on MDA-MB-435 [1] and in the assay on MDA-MB-231 [2] was 6.22 in each case.

As for `CCC[C@H]1CCCCC[C@@H](C)c2cc(O)c(c(O)c2)[C@@H](CCCCO)CCCCC[C@@H](C)c2cc(O)c1c(O)c2`, the pIC50 in the assay on MDA-MB-231 [4] is 6.00.

`C[C@H]1O[C@@H](O[C@H]2CC[C@]3(C)[C@H]4CC[C@]5(C)[C@@H](C6=CC(=O)OC6)CC[C@]5(O)[C@@H]4CC[C@]3(O)C2)C[C@H](O)[C@@H]1O[C@@H]1O[C@H](CO)[C@@H](O)[C@H](O)[C@H]1O` showed a pIC50 in assay [7] of 5.57.

As to `CC(=O)C1=C(O)C=C2Oc3c(C(C)=O)c(O)c(C)c(O)c3C2(C)C1=O` (stereo not drawn), the pIC50 was 5.42 with A2780 [8] and 5.17 with MCF7 [9].

As for `COc1ccc([C@@]23Oc4cc5c(c(OC)c4[C@]2(O)[C@H](O)[C@H](C(N)=O)[C@H]3c2ccccc2)[C@H]2OC[C@H]([C@H](O)CO)O[C@H]2O5)cc1`, the pIC50 (in the assay with HT-29 [3]; in assay [10]) was less than 5.00 in each case.

As for `CCCC[C@H]1CCCCC[C@@H](C)c2cc(O)c(c(O)c2)[C@@H](CCC)CCCCC[C@@H](C)c2cc(O)c1c(O)c2`, the pIC50 in the assay on MDA-MB-231 [4] is 6.00.

With `COc1cc(=O)oc(/C=C/C=C/C=C/C(C)=C/[C@]2(C)O[C@H](C)[C@](C)(O)[C@@H]2O)c1C`, the pIC50 in the assay with A2780 [11] was 5.09; with MCF7 [12] it was 5.22.

Consider `CCCCC(Cl)CCCC[C@H](C)[C@@H](O[C@@H]1OC[C@@H](O)[C@@H](O)[C@H]1O)c1cc(O)c([C@@H](CCCC)CCCC[C@H](O)[C@@H](OC(C)=O)c2cc(O)cc(O)c2)c(O)c1` (stereo partly drawn), for which the pIC50 with MDA-MB-435 [1] and in the assay with MDA-MB-231 [2] was less than 4.60 throughout.

For the compound `CCCC[C@H]1CCCC[C@H](C)[C@@H](O[C@H]2OC[C@@H](O)[C@@H](O)[C@H]2O)c2cc(O)c(c(O)c2)[C@@H](CCCC)CCCC[C@H](C)[C@@H](O[C@@H]2OC[C@@H](O)[C@@H](O)[C@H]2O)c2cc(O)c1c(O)c2`, the negative logarithm of the IC50 (pIC50) in the assay with MDA-MB-435 [1] and with MDA-MB-231 [2] was 6.22 in each case.

A word on the pIC50: it is the IC50 on a negative log10 scale, so that one unit is a factor of ten. Low values mean a large IC50, high ones a small IC50.

The record behind these values is ChEMBL document CHEMBL5120768, “Discovery of Anticancer Agents of Diverse Natural Origin” (J Nat Prod, 2022).
